Laboratory results: patent US4678787A, “4H-1-benzopyran-4-ones and their sulfur containing analogs” (Warner-Lambert Company, priority 1985, dated 1987)

Key:
[1] = test system: exploratory locomotor activity in mice; assay: Inhibition of exploratory locomotor activity, mouse IP (McLean et al. screen); assay type: in vivo; settings: read-out: Inh. Loc. Act. (mouse IP) (ED50)
Text: (§1) All compounds shown in the following Table 1 are active in laboratory tests that have been useful as predictors of antipsychotic efficacy (e.g., treatment of schizophrenia). Among these tests described by J. R. McLean, R. B. Parker, and L. L. Coughenour in Pharmacol. Biochem. Behav. 1978 (8) 97, is one which screens for compounds that decrease exploratory locomotor activity in mice and rats without causing ataxia. […] All known antipsychotic agents are active in this test. Our compounds are also active at doses as low as 0.35 mg/kg.

[2] = test system: exploratory locomotor activity in rats; assay: Inhibition of exploratory locomotor activity, rat PO (McLean et al. screen); assay type: in vivo; settings: read-out: Inh. Loc. Act. (rat PO) (ED50)
Text: as §1

synthesis of dopamine = assay: Dopamine synthesis in rats treated with gamma-butyrolactone (GBL); assay type: in vivo, rat

Row | SMILES | ED50 [1] [mg/kg] | ED50 [2] [mg/kg] | synthesis of dopamine (synthesis of dopamine)
1 | COc1ccc(N2CCN(CCCOc3ccc4c(=O)ccoc4c3)CC2)cc1 [compound 15] | 30 | > 30 | 
2 | O=c1ccoc2cc(OCCCN3CCN(c4cccc(O)c4)CC3)ccc12 [compound 16] | > 30 |  | 
3 | Cc1ccc(N2CCN(CCCOc3ccc4c(=O)ccoc4c3)CC2)cc1C [compound 17] | 3 | 7.3 | 
4 | O=c1ccoc2cccc(OCCCN3CCN(c4ccccc4)CC3)c12 [compound 18, 5-3-(4-phenyl-1-piperazinyl)propoxyl-4H-1-benzopyran-4-one] | 13.3 | 15.6 | 
5 | O=c1ccoc2cc(OCCCN3CCN(c4ccc(F)cc4)CC3)ccc12 [compound 11] | 7 | 7.1 | 
6 | O=c1ccoc2cc(OCCCN3CCN(c4ncccn4)CC3)ccc12 [compound 21] | 23.7 | > 30 | 
7 | COc1ccccc1N1CCN(CCCOc2ccc3c(=O)ccoc3c2)CC1 [compound 6] | 7.7 | > 30 | 
8 | O=c1ccoc2cc(OCCCN3CCC(c4ccccc4)CC3)ccc12 [compound 7, 7-[3-(4-Phenyl-1-piperidinyl)propoxy]-4H-1-benzopyran-4-one] | 14.8 | > 30 | 
9 | Cc1ccc(N2CCN(CCCOc3ccc4c(=O)ccoc4c3)CC2)cc1 [compound 10] | 6.1 | 22.3 | 
10 | O=c1ccoc2cc(OCCCN3CCN(c4ccccc4)CC3)ccc12 [compound 2, 7-[3-(4-phenylpiperazinyl)propoxy]-4H-1-benzopyran-4-one] | 2.4 | 4.3 | 
11 | O=c1ccoc2ccc(OCCCCN3CCN(c4ccccc4)CC3)cc12 [compound 19, 6-[4-(4-phenyl-1-piperazinyl)butoxy]-4H-1-benzopyran-4-one] | 3 | 1.5 | 
12 | O=c1ccoc2cc(OCCCN3CCN(c4ccc(Cl)c(Cl)c4)CC3)ccc12 [compound 14] | 14 to 15 | 17.8 | 
13 | Cc1ccccc1N1CCN(CCCOc2ccc3c(=O)ccoc3c2)CC1 [compound 8] | 2 | 30 | 
14 | Cc1cccc(N2CCN(CCCOc3ccc4c(=O)ccoc4c3)CC2)c1C [compound 4] | 11.2 | 13.2 | 
15 | O=c1ccoc2cc(OCCCN3CCN(c4ccccn4)CC3)ccc12 [compound 12] | 5 to 6 | 1.7 | 
16 | O=c1ccoc2cc(OCCCN3CCN(c4cccc(Cl)c4)CC3)ccc12 [compound 5] | 7.7 | 8.5 | 
17 | O=c1ccoc2cc(OCCCN3CCN(c4ccc(Cl)cc4)CC3)ccc12 [compound 3] | 11.1 | 18.6 | 
18 | O=c1ccoc2cc(OCCCN3CCN(c4ccccc4Cl)CC3)ccc12 [compound 13, 7-[3-(4-(2-Chlorophenyl)-1-piperazinyl)propoxy]-4H-1-benzopyran-4-one] | > 30 |  | 
19 | Cc1cccc(N2CCN(CCCOc3ccc4c(=O)ccoc4c3)CC2)c1 [compound 9] | 5.4 | 4.8 | 
20 | O=c1ccoc2cc(OCCCCN3CCN(c4ccccc4)CC3)ccc12 [compound 20, 7-[4-(4-Phenyl-1-piperazinyl)butoxy]-4H-1-benzopyran-4-one] | 0.35 | 1.9 | 
21 | O=c1ccoc2cc(OCCCN3CC=C(c4ccccc4)CC3)ccc12 [compound 1, 7-[3-(4-Phenyl-1,2,3,6-tetrahydro-1-pyridyl)propoxy]-4H-1-benzopyran-4-one] | 0.7 | 29.5 | inhibition of the synthesis of dopamine
